The results in this text go back to the Deep4Chem optical property database.

This data set in a line: solvent given as SMILES.

Regarding `CN(C)c1ccc(/C=C/C=C2\CC/C(=C\C=C\c3ccc(N(C)C)cc3)C2=O)cc1`, the absorption maximum by setting is: (in C1CCCCC1) 480 nm; (in CC#N) 490 nm; (in CC(C)=O) 493 nm; (in CC(C)O) 515 nm; (in CCCCCC) 478 nm; (in CCCCO) 524 nm. The absorption maximum by setting is: (in CCCO) 515 nm; (in CCO) 510 nm; (in CCOC(C)=O) 480 nm; (in CCOCC) 475 nm; (in CN(C)C=O) 507 nm; (in CO) 523 nm. Moreover, the absorption maximum (in CS(C)=O) is reported as 512 nm; the absorption maximum (in Cc1ccccc1) is listed as 495 nm; the absorption maximum (in ClC(Cl)(Cl)Cl) amounted to 465 nm; the absorption maximum (in ClCCl) came to 503 nm; the absorption maximum (in OCC(F)(F)F) turned out to be 534 nm; the absorption maximum (in S=C=S) turned out to be 480 nm. The absorption maximum (in c1ccccc1) is 475 nm and the absorption maximum (in c1ccncc1) is reported as 507 nm.

For the molecule `C(=C\c1cnc2ccccc2n1)/c1ccc(N(c2ccccc2)c2ccccc2)cc1`, the absorption maximum (in C1CCOC1) was 423 nm, the absorption maximum (in CC#N) came out at 425 nm, the absorption maximum (in CS(C)=O) is given as 436 nm and the absorption maximum (in ClCCl) stood at 427 nm.

`CC(=O)[B-]1(C(C)=O)OC(c2ccccc2)=CC(c2ccc3ccccc3c2)=[O+]1`: the absorption maximum was determined as 400 nm (in CC#N) and 400 nm (in ClC(Cl)(Cl)Cl).

`O=C(O)c1ccc(-c2nc(-c3ccccc3)c3c4ccccc4ccn23)cc1` showed an absorption maximum (in CC#N) of 353 nm.

Take `COC(=O)C(NC(=O)OC(C)(C)C)c1ccc2oc(-c3cc(OC)c(OC)c(OC)c3)nc2c1` (stereo not drawn): the absorption maximum is listed as 327 nm (in CC1CCCCC1), 312 nm (in CC#N) and 313 nm (in CO).

Take `CCCCCCCCCCCCCCCCOc1cc(C#Cc2ccc3ccccc3c2-c2c(C#Cc3cc(OCCCCCCCCCCCCCCCC)c(C#Cc4ccc(C=C(C#N)C#N)cc4)cc3OCCCCCCCCCCCCCCCC)ccc3ccccc23)c(OCCCCCCCCCCCCCCCC)cc1C#Cc1ccc(C=C(C#N)C#N)cc1`: the absorption maximum runs as follows: (in Brc1ccccc1) 442 nm; (in C1CCCCC1) 444 nm; (in C1CCOC1) 425 nm; (in C1COCCO1) 425 nm; (in CCCCCC) 442 nm; (in CCCCCCCCO) 431 nm. In addition, the absorption maximum is recorded as 435 nm (in CCCCOCCCC); 426 nm (in CCOC(C)=O); 429 nm (in CCOCC); 436 nm (in Cc1ccccc1); 447 nm (in ClC(Cl)(Cl)Cl); 446 nm (in ClC(Cl)Cl). For the same molecule, the absorption maximum (in ClCCl) was found to be 436 nm.

Consider `CC(C)(C)c1ccc(-c2cc(-c3ccc(-c4cc(-c5ccc(C(C)(C)C)cc5)c(C(=O)NCc5cccs5)s4)s3)sc2C(=O)NCc2cccs2)cc1`, for which, for the setting “in ClCCl”, the absorption maximum was 394 nm.

`CCN(CC)c1ccc(-c2nc3c4ccccc4n(C)c3nc2-c2ccc(B(c3c(C)cc(C)cc3C)c3c(C)cc(C)cc3C)cc2)cc1`: for the setting “in C1CCOC1”, the absorption maximum worked out at 416 nm.

In the case of `CCN(CC)c1ccc(/C=C/c2ccc(-c3ccc(/C=C/c4ccc(N(CC)CC)cc4)s3)s2)cc1`, the absorption maximum (in Cc1ccccc1) was found to be 467.9 nm.

As to `c1ccc2c3c(ccc2c1)C1(c2cc(-c4ccc5ccc6cccc7ccc4c5c67)ccc2-c2ccc(-c4ccc5ccc6cccc7ccc4c5c67)cc21)c1ccc2ccccc2c1O3`, the absorption maximum (in ClC(Cl)Cl) was determined as 365 nm.

Turning to `O=C1C=Cc2cc3ccccc3c(=O)n21`, the absorption maximum turned out to be 351 nm (in CC#N), 349 nm (in CO), 357 nm (in CS(C)=O) and 353 nm (in ClC(Cl)Cl).

For `N#Cc1nc(N(Cc2ccccc2Br)Cc2ccccc2Br)c(C#N)nc1N(Cc1ccccc1Br)Cc1ccccc1Br`, the absorption maximum (in ClC(Cl)Cl) worked out at 485 nm.

On to `Cc1cc(C)c(B(c2c(C)cc(C)cc2C)c2c(C)cc(-n3c4ccc(N(c5ccccc5)c5ccccc5)cc4c4cc(N(c5ccccc5)c5ccccc5)ccc43)cc2C)c(C)c1`, for which the absorption maximum (in Cc1ccccc1) was determined as 387 nm.

`Cc1ccc(NC(=O)c2sc(Br)nc2C)cc1`: the absorption maximum is, setting by setting: (in C1CCOC1) 301.5 nm; (in CC#N) 281.6 nm; (in CCCCCC) 286.9 nm; (in CCOC(C)=O) 286.1 nm; (in CN(C)C=O) 287.1 nm; (in CO) 282.1 nm. Besides, the absorption maximum turned out to be 283.5 nm (in CS(C)=O) and 288.3 nm (in ClC(Cl)Cl).

Where the note is “in Cc1ccccc1”, `c1ccc(-c2ccc(-c3nc(-n4c5ccccc5c5ccc6c7ccccc7n(-c7ccccc7)c6c54)nc(-n4c5ccccc5c5ccc6c7ccccc7n(-c7ccccc7)c6c54)n3)cc2)cc1` gave an absorption maximum of 403 nm.

The molecule `CCCCCCCCCCCCCCn1c(-c2cc(-c3nc4ccc(C)cc4n3CCCCCCCCCCCCCC)cc(-c3nc4ccc(C)cc4n3CCCCCCCCCCCCCC)c2)nc2ccc(C)cc21` displayed an absorption maximum (in ClCCl) of 306.5 nm.

For `CCCCCCCc1ccc(C2=[N+]3C(=C4c5cc(OCC(CC)CC)c(-c6ccc(CCCCCCC)o6)n5[B-](F)(F)[n+]5nnn(c54)[B-]3(F)F)C=C2OCC(CC)CC)o1`, the absorption maximum runs as follows: (in C1CCOC1) 811 nm; (in ClCCl) 826 nm.

Regarding `O=Cc1ccc(Oc2ccc3c4c(cccc24)C(=O)N(CCO)C3=O)cc1`, the absorption maximum (in ClC(Cl)Cl) was determined as 355 nm.

Turning to `Cc1cc(-c2ccccc2)cc(C)[o+]1`, the absorption maximum by setting is: (in CC#N) 326 nm; (in ClCCl) 343 nm.

As to `[O-][n+]1c(/C=C/c2ccccc2)nc(Nc2ccccc2)c2c1CCCC2`, the absorption maximum (in ClCCl) stood at 416 nm.

For `c1ccc(-c2cc3c(-c4ccccc4)c4cccc5c(-c6ccccc6)cc6c(-c7ccccc7)c7cccc2c7c3c6c54)cc1`, the absorption maximum (in ClCCl) is reported as 454 nm.

`F[B-]1(F)Oc2ccccc2-c2cc(-n3c4ccc(-c5ccccc5)cc4c4cc(-c5ccccc5)ccc43)cc[n+]21`: the absorption maximum (in Cc1ccccc1) is on record as 374 nm.

In turn, `Cc1cccn2c1cc1c3ccccc3nc(-c3ccco3)c12` returned an absorption maximum (in CS(C)=O) of 400 nm.

For `O=C(c1cc(F)c(N2CCOCC2)cc1F)c1cc(F)c(N2CCOCC2)cc1F`, the absorption maximum (in CCO) is recorded as 342 nm.

`CC(C)(C)c1ccc2c(c1)c1cc(C(C)(C)C)ccc1n2-c1ccc(-n2c3ccc(C(C)(C)C)cc3c3cc(C(C)(C)C)ccc32)c(C(=O)c2ccncc2)c1` had an absorption maximum (in Cc1ccccc1) of 418 nm.

In the case of `c1ccc(-c2nc(-c3ccccc3)nc(-c3ccc(N4c5ccccc5C5(c6ccccc64)c4ccccc4N(c4ccc(-c6nc(-c7ccccc7)nc(-c7ccccc7)n6)cc4)c4ccccc45)cc3)n2)cc1`, the absorption maximum (in Cc1ccccc1) amounted to 400 nm.

Consider `Cc1ccc(-c2cc(/C=C/c3ccc(N(c4ccccc4)c4ccccc4)cc3)c(-c3ccc(C)cc3)cc2/C=C/c2ccc(N(c3ccccc3)c3ccccc3)cc2)cc1`, for which, where the note is “in ClCCl”, the absorption maximum is listed as 410 nm.

For `CCCCN1/C(=C/C=C/C2=[N+](C)c3ccccc3C2(C)C)C(C)(C)c2cc(OC)ccc21`, the absorption maximum (in CS(C)=O) came to 566 nm.

Consider `Cc1cccc(C)c1-c1cc2c(C)c3c4ccc5nc6c(ccc7c8c(C)c9cc(-c%10c(C)cccc%10C)c(-c%10c(C)cccc%10C)cc9c(C)c8c76)nc5c4c3c(C)c2cc1-c1c(C)cccc1C`, for which the absorption maximum (in ClC(Cl)Cl) came to 501 nm.
